Measured values: patent US8343912B2, “Antibiotic compositions for the treatment of gram negative infections” (priority 2008, dated 2013)
≈ marks a conversion by molar mass, not a printed value. Marks after values point to notes of the source that are not given here. Numbered stars: 1 amine (or outer) side, 2 acyl side, 3 side chain; on linkers, the order of the positions; unused ones are H or OH. Bridge positions count the residues as written; N and C are the ends. Square brackets hold non-standard residues; d marks the D form. Peptide text beside a SMILES is read from it. * marks the point of attachment. NH(3-Cl-phenyl) = Clc1cccc(N*)c1; NH(2-ClPh) = Clc1ccccc1N*; Dab = NCC[C@H](N)C(=O)O; CO = O=C([*:1])[*:2]

Experiments:
P. aeruginosa [1] = test: MIC, broth microdilution (Table 4); assay type: cell-based, Pseudomonas aeruginosa; details: for MIC P. aeruginosa: Table 4
Method: (§1) MIC testing was performed according to Clinical and Laboratory Standards Institute (CLSI) M7-A7 (2006) broth microdilution methods. Unless otherwise indicated, MIC values are provided in units of micrograms per milliliter.
(§2) One day prior to testing, individual colonies were isolated by streaking onto rich, non-selective Tryptic Soy agar with 5% lysed sheeps blood (TSAB) with incubation at 35-37° C. for 18-24 hours.
(§3) Cultures were prepared by touching 3-5 colonies into 3 mL of Cation adjusted Mueller Hinton Broth (caMHB) in a 14 mL tube (CaMHB was prepared and sterilized according to manufacturer's specifications). Cultures were grown at 37° C. 200 rpm for approximately four hours prior to density adjustment for addition to the MIC assay.
(§4) OD600 of growing cultures was measured and adjusted to approximately 10^5 colony forming units per mL (CFU/mL) in caMHB for MIC inoculation (approximately OD600 0.001).
(§5) Diluted cultures were used to inoculate 50 μL per well in broth microdilution assays (final volume 100 μl per well; compounds were prepared in two-fold dilutions).
(§6) Plates were incubated 16-20 hrs at 37° C., with shaking at 200 rpm.
(§7) OD600 was determined for all wells. Growth was defined as OD600>0.1. MICs were defined as the lowest concentration producing no visible turbidity (OD600<0.1).

[2] = Cell culture cytotoxicity assay (ATP bioluminescence, LLC-PK1); assay type: cell-based, rat; details: read-out: EC50, rat kidney proximal tubule cell culture cytotoxicity assay
Method: (§8) Day 1: 1×10^5 to 2×10^5 cellswere inoculated (Cell line: LLC-PK1) per flask, containing 4 mL/T25 flask of medium DMEM-F12 (50/50) media supplemented with 10% FBS (Fetal Bovine Serum). The cells were then incubated at 37° C., 5% CO2, 80% RH.
(§9) Day 4: The cell cultures were examined to determine 80% confluency. To trypsinize of the 80% confluent flasks, 4 mL of DMEM-F12-10% FBS media was prepared per flask. The media was aspirated from the flask and 5 mL of Versene was added to rinse the flask. The Versene was aspirated and 2 mL of triple Express solution (trypsin solution) was added. The cells were incubated for 5 min at room temperature and examined via microscopy for the rounding of the cells and their detachment. To speed up the reaction, the flask can be incubated at 37° C. for 3 minutes. 4 mL of media (DMEM-F12-10%FBS) was added to stop the reaction. Using a 5 mL pipette, the completed reaction was pipetted up and down to ensure that the cells were properly detached from the flask and from each others. The cell number was counted using a hemocytometer slide. 100 μL of cell suspension was transferred to a tube and 100 μL of Trypan Blue was added. Inoculum for 96 well is 10,000 cells per well. For one 96 well plate, 26.3 μL×110 well=2893 μL total. 2.9 mL of cell suspension was mixed with 8.1 mL of media DMEM-F12-10% FBS and 100 μL was distributed to each well using a multichannel pipetter. The plate was then Incubated for 24 h at 37° C.
(§10) Day 5: DMEM-F12 (no FBS) medium was dispensed into tubes with the test article to achieve final concentrations of […]. The 96 well plate was taken off the incubator and media was removed from each well using multichannel pipetter. 80 μL of serially diluted compounds of Formula (I) was added to each well. Every set of concentration was done in triplicate. Media and positive controls were added to each plate and the plates were incubated for 24 hours at 37° C.
(§11) Day 6: The plates were taken from the incubator, the media was removed from each well, and 100 μL of fresh media DMEM-F12 (this is equivalent to a rinse and the media can be replaced with PBS) was added. The media is then removed and 80 μL of cell lysis solution is added. After 5 minutes, 80 μL of sterile filtered high quality water was added to each well. Using a white or black 96 well reaction plate, 80 μL of 25× diluted ATP mix reagent (Sigma Bioluminescent Somatic Cell Assay Kit [cat #FL-ASC]) was added into one column. 80 μL of diluted ATP standards (dilutions used: 250, 500, 1000, 2000 and 4000) was added and the plate was read immediately in the topcount with a 2 second read time. In another white or black 96 well reaction plate, 80 μL of 25× diluted ATP mix reagent (plate A) was added and 80 μL of lysis-water solution was transferred to each column of plate A. The plate was then read immediately in the topcount with a 2 second read time. This process was repeated for next consecutive plate and the EC50 for certain compounds of Formula I were calculated and provided in Table 4.

K. pneumonia = test: MIC90, broth microdilution, panel of Gram negative clinical isolates; assay type: cell-based, Klebsiella pneumoniae; details: 81 strains; some strains multi-drug resistant
Method: (§12) To evaluate the potency and spectrum of compounds of Formula (I), (i.e., Compounds designated 5 and 6), a study was conducted that put together a panel of 455 Gram negative strains, which included multi-drug resistant clinical isolates selected from various surveillance programs. Table 3A lists the strains that were included in the study and the activity of Compound 5, Compound 6, and colistin (polymyxin E, abbreviated PME). Strains with acquired resistance to colistin and/or carbapenems and/or broad spectrum cephalosporins were pre-selected and included in all organism groups evaluated.
as §1, §2, §3, §4, §5, §6, §7

P. aeruginosa [3] = test: as above; assay type: cell-based, Pseudomonas aeruginosa; details: for MIC90 P. aeruginosa: 100 strains
Method: as §12, §1, §2, §3, §4, §5, §6, §7

[4] = test system: Acinetobacter baumannii 1570; test: MIC, broth microdilution; assay type: cell-based; details: Table 8; range of repeated tests
Method: as §1, §2, §3, §4, §5, §6, §7
A. baumannii #1570 were grown in cation adjusted Mueller Hinton Broth (caMHB) (catalog #B12322; Fisher Scientific, Pittsburgh, Pa.) at 37° C. MIC testing was performed according to Clinical and Laboratory Standards Institute [CLSI, formerly National Committee for Clinical Laboratory Standards (NCCLS), Wayne, Pa.] guidelines for broth microdilution.
(§13) MIC testing was performed according to CLSI (formerly NCCLS) guidelines for broth microdilution.

S. maltophilia = test: MIC90, broth microdilution, panel of Gram negative clinical isolates; assay type: cell-based, Stenotrophomonas maltophilia; details: 25 strains
Method: as §12, §1, §2, §3, §4, §5, §6, §7

P. aeruginosa #44 = test: MIC, broth microdilution; assay type: cell-based, Pseudomonas aeruginosa; details: Table 5; range of repeated tests
Method: as §1, §2, §3, §4, §5, §6, §7
P. aeruginosa #44 or K. pneumoniae #21 were grown in cation adjusted Mueller Hinton Broth (caMHB) (catalog #B12322; Fisher Scientific, Pittsburgh, Pa.) at 37° C. MIC testing was performed according to Clinical and Laboratory Standards Institute [CLSI, formerly National Committee for Clinical Laboratory Standards (NCCLS), Wayne, Pa.] guidelines for broth microdilution.
as §13

E. coli = test: MIC90, broth microdilution, panel of Gram negative clinical isolates; assay type: cell-based, Escherichia coli; details: 80 strains; some strains multi-drug resistant
Method: as §12, §1, §2, §3, §4, §5, §6, §7

Acinetobacter spp = test: as above; assay type: cell-based; details: 81 strains
Method: as §12, §1, §2, §3, §4, §5, §6, §7

Citrobacter spp. = test: as above; assay type: cell-based; details: 20 strains; some strains multi-drug resistant
Method: as §12, §1, §2, §3, §4, §5, §6, §7

Enterobacter = test: as above; assay type: cell-based; details: 20 strains; some strains multi-drug resistant
Method: as §12, §1, §2, §3, §4, §5, §6, §7

patients = details: human, in vivo; cited from earlier work
[5] = test system: Rat kidney proximal tubule cells; test: Cell culture cytotoxicity assay (ATP bioluminescence, LLC-PK1); assay type: cell-based; details: LLC-PK1, 24 hours, ATP readout
Method: as §8, §9, §10, §11

| Compound | activity against bacteria compared with polymyxin B (P. aeruginosa [1]) | MIC P. aeruginosa (P. aeruginosa [1]) [micrograms/ml] | EC50 [2] [µg/mL] | MIC90 K. pneumonia (K. pneumonia) | MIC90 P. aeruginosa (P. aeruginosa [3]) [micrograms/mL] | MIC against A. baumannii #1570 [4] [micrograms/ml] | MIC90 S. maltophilia (S. maltophilia) [micrograms/mL] | MIC against P. aeruginosa #44 (P. aeruginosa #44) | MIC90 E. coli (E. coli) | MIC90 Acinetobacter spp (Acinetobacter spp) [micrograms/mL] | MIC90 Citrobacter spp. (Citrobacter spp.) | MIC90 Enterobacter (Enterobacter) | overall incidence of neurotoxicity or neuropathy (patients) [%] | decrease in activity against colistin susceptible P. aeruginosa (P. aeruginosa [3]; relative to colistin / Compound 5) | EC50 Rat kidney proximal tubule cells [5] [micrograms/ml] |
| --- | --- | --- | --- | --- | --- | --- | --- | --- | --- | --- | --- | --- | --- | --- | --- |
| CC(C)C[C@@H]1NC(=O)[C@@H](Cc2ccccc2)NC(=O)[C@H](CCN)NC(=O)[C@@H](NC(=O)[C@H](CCN)NC(=O)[C@@H](NC(=O)[C@H](CCN)NC(=O)Nc2cccc(Cl)c2)[C@@H](C)O)CCNC(=O)[C@H]([C@@H](C)O)NC(=O)[C@H](CCN)NC(=O)[C@H](CCN)NC1=O [Compound 4] ({NH(3-Cl-phenyl)-CO}-[Dab]T[Dab][Dab][Dab][dF]L[Dab][Dab]T; lactam 4-C) | as active or more active | 2 | 691 (≈ 568 µM) |  |  |  |  |  |  |  |  |  |  |  |  |
| colistin [reference compound] |  |  |  | 4* micrograms/mL | 2 | 2 | 16 | 2-4 micrograms/ml | 2* micrograms/mL | 4 | 0.5* micrograms/mL | >64* micrograms/mL | 7.3 |  |  |
| CC[C@H](C)[C@@H]1NC(=O)[C@@H](Cc2ccccc2)NC(=O)[C@H](CCN)NC(=O)[C@@H](NC(=O)[C@H](CCN)NC(=O)[C@@H](NC(=O)[C@H](CCN)NC(=O)Nc2ccccc2Cl)[C@@H](C)O)CCNC(=O)[C@H]([C@@H](C)O)NC(=O)[C@H](CCN)NC(=O)[C@H](CCN)NC1=O [Compound 6] ({NH(2-ClPh)-CO}-[Dab]T[Dab][Dab][Dab][dF]I[Dab][Dab]T; lactam 4-C) | as active or more active | 1 | > 1000 | 4 micrograms/mL | 8 |  | 16 |  | 4 micrograms/mL | 2 | 1 micrograms/mL | >16 micrograms/mL |  | approximately 4 fold | >1000 |
